Consider four compounds from patent publication US20260009799A1, “CA-IX TARGETING FLUORESCENT PROBES” (BRACCO IMAGING S.P.A., priority 2022, published 2026).

Data set [1] has as its target T1, human serum albumin (HSA) (Homo sapiens, UniProt P02768).
T1 construct: purchased Sigma-Aldrich A9511
The experiment in a line: Binding to albumin (ultrafiltration, absorbance of filtrates). It counts as in vitro ADME. The conditions noted are these: 4.76 μM probe in PBS, 10 KDa cut off ultrafiltration, 25° C.; read-out: HSA affinity (KA, M^−1) (converted). As to the method:
The affinity of the probes for human serum albumin (HSA) was determined to assess the influence of structural features on their albumin binding properties. Briefly, HSA (A9511, Sigma-Aldrich) was prepared in a […] stock solution in PBS and used to obtain a series of dilutions in PBS (0, 9.52·10^−7, 4.76·10^−6, 9.52·10^−6, 1.90·10^−5, 3.81·10^−5, 5.71·10^−5, 9.52·10^−5, 1.43·10^−4, 1.90·10^−4, 2.86·10^−4, 3.81·10^−4 M), in presence of 4.76 μM of the CA-IX-targeting probe (prepared from a 50 μM stock solution in PBS), in a total volume of 0.525 mL. The samples were centrifuged (10000 g for 30 min at 25° C.) in a Microcon device (10 KDa MW cut off, Amicon Ultra-0.5 Centrifugal Filter Unit with Ultracel-10 membrane) and the absorbance measurements of the filtrates were obtained with the spectrophotometer at the maximum absorbance wavelength of the fluorophore.
Data analysis was performed by fitting the raw data, using Microsoft Excel Solver, with the equation:
where ΔA/b=Absorbance measured (b=1 cm), KRL=KA calculated by fitting, Δε·Rt are calculated by fitting, and [L]=HSA concentration. ΔA/b values were experimentally obtained by subtracting the absorbance of “0 HSA sample” to the absorbance of each other sample.

The test system of data set [2] is hypoxic HT-29 colorectal tumor, subcutaneously induced. Description: In vivo tumor optical imaging (IVIS Spectrum), tumor-to-background ratio. Set-up: species or system mice. The note with it: 24 hours after intravenous administration, 1 nmol/mouse, tumor vs hind limb muscle. Here is the method:
HT-29 cells were collected and washed once with serum-free medium. Five million HT-29 cells were suspended in 0.1 mL serum-free medium and injected subcutaneously in the right flank of 5 weeks old mice. Tumor development was followed by caliper measurement twice a week, from 7 days after inoculation. Tumor volume was calculated according to the formula: (L*W2)/2, where L and W are the maximum length and width of the tumor.
Optical Imaging experiments on HT-29 tumor bearing animals were performed after administration of Reference 1, 2 and 3, and compounds 1 and 2, all at a dose of 1 nmol/mouse in an administration volume of 0.1 mL (corresponding to about 5 mL/kg, considering a 20 g-mouse) at an injection rate of about 1 mL/min, by the IVIS Spectrum system when the tumor reached at least 200 mm^3 volume. For each group, in vivo OI experiments were performed at 0.5, 1, 2, 3, 4, 6 and 24 hours after intravenous administration of the fluorescent compounds. During imaging experiments animals were maintained under gaseous anesthesia. Regions of interest (ROIs) were drawn on the tumor and on a reference background healthy region (hind limb muscle) of the mouse for each fluorescence image at every time point to evaluate signal intensity in the tissues (expressed as Average Radiant Efficiency). The ratio between the fluorescence signal in the tumor and in the background healthy tissue (tumor-to-background ratio, TBR) was then calculated to assess the contrast.
All the compounds of the invention and the References were tested at a dose of 1 nmol/mouse.

The nature of data set [3]: Optical characterization (excitation/emission maxima, molar extinction coefficient). It counts as physicochemical. As to the method:
A dual-beam UV-VIS spectrophotometer (Lambda 40, Perkin Elmer) was used to determine the absorbance (Abs) of the compounds of the invention. Emission/excitation (Em/Ex) spectra were carried out on a spectrofluorometer (FluoroLog-3 1IHR-320, Horiba Jobin Yvon) equipped with an F-3018 integrating sphere accessory. The measurements were performed using an excitation wavelength at maximum absorbance of different dyes, and the sample was excited with a 450 W Xenon light Source. Detection was performed by photomultiplier tubes (PMT-NIR) cooled detector or by TBX-04 detector. Dye solutions were carefully prepared to have an absorbance lower than 0.1 (optical densities) to minimize re-absorption phenomena.
The compounds of the invention were characterized in terms of their optical properties in vitro in aqueous medium (i.e., water/PBS pH 7.4) and in a clinical chemistry control serum (Seronorm, Sero SA), mimicking the chemical composition and optical properties of human serum. All solutions were freshly prepared. In particular, the compounds of the invention are characterized by absorption maxima comprised in the range from about 750 nm to 780 nm.
The excitation and emission maxima in PBS and Seronorm and the molar extinction coefficient (ε) in water of representative compounds of formula (I) are shown in Table I in comparison with the known CA-IX targeting fluorescent probe named Hypoxyfluor-1 (HF-1, for instance disclosed in Bioconjugate Chem 2018, 29, 3320-3331). […] Moreover, the extinction coefficients were higher than 200,000 mM^−1 cm^−1 for all compounds.

For data set [4], the system named is HT-29 excised tumors and tissues. The experiment in a line: Ex vivo biodistribution in excised tumors and organs. Set-up: species or system mice. The note with it: 1 nmol; for Organ-to-muscle ratio, intestine (mean ± SD) / Organ-to-muscle ratio, kidney (mean ± SD) / Organ-to-muscle ratio, liver (mean ± SD) / Organ-to-muscle ratio, skin (mean ± SD) / Organ-to-muscle ratio, spleen (mean ± SD) / Organ-to-muscle ratio, stomach (mean ± SD): ex vivo, 24 hours after administration; for ex vivo TBR (mean ± SD), HT-29 tumor: samples collected 24 hours after administration, tumor vs hind limb muscle. As to the method:
The ex vivo biodistribution of the representative compounds 1 and 2 and of the reference compounds (at 1 nmol/mouse) was evaluated in HT-29 excised tumors and tissues at the end of the in vivo OI sessions 24 hours post intravenous administration. At the end of the in vivo experiment, animals were euthanized by overdose of gaseous anesthesia followed by cervical dislocation. Tumor tissue, muscle, and other organs of interest were removed for ex vivo fluorescent signal measurements. The fluorescence signal intensity was measured by the IVIS Spectrum system. Regions of interest (ROIs) were drawn around each organ and tumor using the Living Image Software (PerkinElmer) and evaluating signal intensity in the tissues (expressed as Average Radiant Efficiency). The ratio between the fluorescence signal in the organs and tumor was then calculated to assess the contrast to hind limb muscle (representing the background).

A short description of data set [5]: Optical characterization (excitation/emission maxima, molar extinction coefficient). It counts as physicochemical. The conditions noted are these: in water.
The target of data set [6] is recombinant bovine CA-II enzyme (bCAII) (Bos taurus, UniProt P00921). Description: Fluorescence-based dansylamide (DNSA) displacement assay on carbonic anhydrase catalytic site.
Chain of recombinant bovine CA-II enzyme (bCAII) (P00921 whole entry): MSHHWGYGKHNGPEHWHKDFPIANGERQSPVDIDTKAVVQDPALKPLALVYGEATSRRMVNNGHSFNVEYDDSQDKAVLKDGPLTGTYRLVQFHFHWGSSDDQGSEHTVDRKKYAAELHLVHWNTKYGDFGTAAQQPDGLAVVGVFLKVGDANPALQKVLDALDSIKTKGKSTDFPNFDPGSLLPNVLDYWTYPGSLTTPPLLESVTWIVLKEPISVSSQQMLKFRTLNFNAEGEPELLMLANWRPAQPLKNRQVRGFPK
The target of data set [7] is T2, CA-IX expressing HT-29 cells (Homo sapiens, UniProt Q16790).
T2 construct: CA-IX, expressed in its physiological environment at the cell-surface; host or cells: HT-29 human colorectal adenocarcinoma cells
The experiment in a line: Cellular binding assessment by flow cytometry. The conditions noted are these: HT-29 cells, 1 hour 30 min on ice, flow cytometry; read-out: CA-IX receptor affinity (KD, nM to HT-29 cells). As to the method:
Human colon adenocarcinoma HT-29 cells (ATCC) used for the cellular binding experiments were cultured in McCoy's 5A medium (Sigma-Aldrich), supplemented with 10% HyClone Fetal Clone III (Euroclone), 2 mM L-glutamine (Sigma-Aldrich), 100 IU/mL penicillin, 0.1 mg/mL streptomycin, 0.25 μg/mL amphotericin B (Antibiotic-Antimycotic solution, Life Technologies) and cells were grown at 37° C. in humidified atmosphere enriched with 5% CO2. DPBS without MgCl2 and CaCl2) (Sigma-Aldrich) was used for cell rinsing.
Indeed, by using the anti-human CA-IX antibody MAB2188 (R&D Systems) and the DAKO […], according to the instruction of the datasheet, HT-29 cells were estimated to express about 150,000 CA-IX molecules per cell. Thus, HT-29 cells were used to measure the binding of all compounds to CA-IX, expressed in its physiological environment at the cell-surface. Briefly, HT-29 cells were detached with StemPro® Accutase® Cell Dissociation Reagent (Life Technologies), collected in DPBS and counted. At least 2·10^5 HT-29 cells were placed in 1.5 mL tubes on ice and resuspended in 50-100 μL of cold FACS buffer (eBioscience™ Flow Cytometry Staining Buffer, Invitrogen) containing scalar concentrations of compounds (HF-1, reference 2, and compound 1: range 0-20 μM; reference 3: range 0-24 μM; compound 2: range 0-10 μM). After incubation (1 hour and 30 min on ice in the dark), cells were rinsed 3 times in 300 μL of cold FACS buffer by centrifugation (5 min, 4° C., 350 RCF), discarding the supernatant. Cell pellets were then resuspended in 200 μL of cold FACS buffer (or in an adequate volume in order to obtain no more than 1000 recorded events per μL during FACS analysis) and analyzed with the flow cytometer Accuri™ C6 (BD Biosciences). The mean cell-associated fluorescence was plotted against concentration and the dissociation constant at equilibrium (KD) was inferred by mathematical fitting with GraphPad Prism v.9 software, according to the following equation: […]
where Bmax is the maximum specific binding in the same units as Y; KD is the equilibrium dissociation constant, in the same units as X; NS is the slope of nonspecific binding in Y units divided by X units; and background is the amount of nonspecific binding with no added Compound.
All compounds were analyzed in at least three independent experiments.

The conditions of data set [8]: after injection into the patient; cited from earlier work.

T1 sequence (P02768 25-609): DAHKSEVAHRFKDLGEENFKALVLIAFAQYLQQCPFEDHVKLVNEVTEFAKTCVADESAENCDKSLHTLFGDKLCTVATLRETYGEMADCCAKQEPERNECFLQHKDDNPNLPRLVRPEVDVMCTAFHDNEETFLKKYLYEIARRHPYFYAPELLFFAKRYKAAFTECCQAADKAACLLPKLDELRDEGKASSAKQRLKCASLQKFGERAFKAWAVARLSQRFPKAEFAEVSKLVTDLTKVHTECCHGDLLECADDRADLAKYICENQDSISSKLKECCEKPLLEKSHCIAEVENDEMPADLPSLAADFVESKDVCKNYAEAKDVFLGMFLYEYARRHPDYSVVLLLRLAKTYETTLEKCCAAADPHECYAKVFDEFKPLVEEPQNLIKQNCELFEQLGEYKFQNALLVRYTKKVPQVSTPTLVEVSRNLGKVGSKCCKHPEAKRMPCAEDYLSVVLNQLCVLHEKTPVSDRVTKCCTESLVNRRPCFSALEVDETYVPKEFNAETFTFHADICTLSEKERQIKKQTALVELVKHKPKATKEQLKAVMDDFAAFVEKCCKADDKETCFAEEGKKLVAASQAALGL

With `CC1(C)C(/C=C/C2=C(Oc3ccc(CCC(=O)NCCCCCCCC(=O)Nc4nnc(S(N)(=O)=O)s4)cc3)C(=C/C=C3/N(CCCCS(=O)(=O)O)c4ccc(S(=O)(=O)O)cc4C3(C)C)/CCC2)=[N+](CCCCS(=O)(=O)[O-])c2ccc(S(=O)(=O)O)cc21` [Reference 1], in data set [1], the Kd is 6400 nM. Moreover, the “in vivo TBR (mean ± SD)” value in data set [2] is recorded as 1.8 ± 0.3. For the same compound, the “Max Em (nm, PBS pH 7.4)” value in data set [3] (emission maximum, PBS pH 7.4) worked out at 798 nm. Also, the “Max Em (nm, Seronorm)” value in data set [3] (emission maximum, Seronorm control serum) stood at 808 nm. The “Max Ex (nm, PBS pH 7.4)” value in data set [3] (excitation maximum, PBS pH 7.4) is listed as 772 nm. Besides, the “Max Ex (nm, Seronorm)” value in data set [3] (excitation maximum, Seronorm control serum) was 792 nm. Further, in data set [4], the “Organ-to-muscle ratio, intestine (mean ± SD)” value is listed as 2.2 ± 1.3; the “Organ-to-muscle ratio, kidney (mean ± SD)” value amounted to 2.4 ± 0.3; the “Organ-to-muscle ratio, liver (mean ± SD)” value came to 5.7 ± 0.2; the “Organ-to-muscle ratio, skin (mean ± SD)” value was 1.4 ± 0.0. In data set [4], the “Organ-to-muscle ratio, spleen (mean ± SD)” value is on record as 1.4 ± 0.3; the “Organ-to-muscle ratio, stomach (mean ± SD)” value was 4.0 ± 1.7; the “ex vivo TBR (mean ± SD), HT-29 tumor” value stood at 3.1 ± 0.3. This compound returned a molar extinction coefficient (ε) in data set [5] of 255000 M⁻¹ cm⁻¹.
In the case of `CC(=O)NC(CCCCn1cc(CCCC(=O)Nc2nnc(S(N)(=O)=O)s2)nn1)C(=O)NCCOCCOCCNC(=O)CCCCCN1/C(=C/C=C2\CCCC(/C=C/C3=[N+](CCCCS(=O)(=O)[O-])c4ccc(C(=O)NC[C@H](O)[C@@H](O)[C@H](O)[C@H](O)CO)cc4C3(C)C)=C2Oc2ccc(S(=O)(=O)O)cc2)C(C)(C)c2cc(C(=O)NC[C@H](O)[C@@H](O)[C@H](O)[C@H](O)CO)ccc21` (stereo partly shown) [Reference 2], in data set [6], the Kd amounted to 55.8 ± 1.1 nM. Moreover, the Kd in data set [1] was 69900 nM. Moreover, the “in vivo TBR (mean ± SD)” value in data set [2] is 3.4 ± 0.6. Also, in data set [7], the Kd amounted to 349 ± 49 nM. For the same compound, in data set [4], the “Organ-to-muscle ratio, intestine (mean ± SD)” value was 3.0 ± 0.3; the “Organ-to-muscle ratio, kidney (mean ± SD)” value is given as 19.7 ± 2.2; the “Organ-to-muscle ratio, liver (mean ± SD)” value is 6.2 ± 1.3; the “Organ-to-muscle ratio, skin (mean ± SD)” value came to 1.7 ± 0.4. Also, in data set [4], the “Organ-to-muscle ratio, spleen (mean ± SD)” value is given as 1.7 ± 0.4; the “Organ-to-muscle ratio, stomach (mean ± SD)” value came out at 6.1 ± 0.7; the “ex vivo TBR (mean ± SD), HT-29 tumor” value was 9.2 ± 3.3.
Regarding `CC(=O)NC(CCCCn1cc(CCCC(=O)Nc2nnc(S(N)(=O)=O)s2)nn1)C(=O)NCCOCCOCCNC(=O)CCCCCN1/C(=C/C=C/C=C/C=C/C2=[N+](CCC(C)S(=O)(=O)[O-])c3ccc(C(=O)NC[C@H](O)[C@@H](O)[C@H](O)[C@H](O)CO)cc3C2(C)C)C(C)(C)c2cc(C(=O)NC[C@H](O)[C@@H](O)[C@H](O)[C@H](O)CO)ccc21` (stereo partly shown) [Reference 3], the Kd in data set [6] is 30.2 ± 1 nM. In addition, in data set [1], the Kd was 24000 nM. The “in vivo TBR (mean ± SD)” value in data set [2] amounted to 4.7 ± 0.6. Moreover, the Kd in data set [7] is 251 ± 44 nM. In addition, in data set [4], the “Organ-to-muscle ratio, intestine (mean ± SD)” value was found to be 2.7 ± 0.9; the “Organ-to-muscle ratio, kidney (mean ± SD)” value was determined as 15.8 ± 3.4; the “Organ-to-muscle ratio, liver (mean ± SD)” value turned out to be 3.6 ± 1.0; the “Organ-to-muscle ratio, skin (mean ± SD)” value stood at 2.0 ± 0.5. In addition, in data set [4], the “Organ-to-muscle ratio, spleen (mean ± SD)” value came to 1.2 ± 0.3; the “Organ-to-muscle ratio, stomach (mean ± SD)” value is reported as 6.7 ± 1.4; the “ex vivo TBR (mean ± SD), HT-29 tumor” value stood at 14.7 ± 2.3.
Regarding “^124I-cG250: chimeric version of monoclonal antibody G250 labeled with radionuclide 124I”, in data set [8], the “time after injection to reach tumor/blood ratios suitable for imaging” value was 2 to 7 days.
